Data: patent US12336977B2, “Nitenin analogue compounds and their use in the treatment of chronic and acute pain” (SEA4US-BIOTECNOLOGIA E RECURSOS MARINHOS, LDA., priority 2019, dated 2025)

Experiments:
[1] = system: K+ currents of small diameter dorsal-root ganglion neuron; assay: voltage dependence of steady state of inactivation of K+ currents in sdDRGn; format: cell-based, rat; conditions: sdDRGn
From the text: One can observe a shift to hyperpolarized values during the nitenin treatment. The relationships were better fit with the sum of two Boltzmann functions, showing that in both conditions there are two components: one more hyperpolarized component (component 1) and one other more depolarized component (component 2).
One can observe a shift to hyperpolarized values during the treatment with the compound of formula VI. The relationships were better fit with the sum of two Boltzmann functions, showing that in both conditions there are two components: one more hyperpolarized component (component 1) and one other more depolarized component (component 2).
One can observe a shift to hyperpolarized values during the treatment with the compound of formula VII. The relationships were better fit with the sum of two Boltzmann functions, showing that in both conditions there are two components: one more hyperpolarized component (component 1) and one other more depolarized component (component 2).
One can observe a shift to hyperpolarized values during the treatment with the compound of formula VIII. The relationships were better fit with the sum of two Boltzmann functions, showing that in both conditions there are two components: one more hyperpolarized component (component 1) and one other more depolarized component (component 2).
For the electrophysiological recordings of the ex vivo material, voltage-clamp recordings were performed on neurons isolated from rat DRGs (and TGs). Recordings were performed from the soma that often contained the proximal fraction of axon, 1 hour after the end of the cell isolation process (includes enzymatic and mechanical treatment).

[2] = system: voltage activated K+ currents (Islow, Ifast) of small diameter Dorsal Root Ganglia neurons (sdDRGns); assay: whole-cell voltage-clamp of voltage activated K+ currents in sdDRGns; format: cell-based, rat

## C/C(=C\C1OC(=O)CC1O)CCCc1ccoc1 (centres unmarked) [compound of formula VII]
[1]; 0.1 μg/ml, 399 nM, control −13.7
  Vh2 of steady state inactivation: −32.4 mV
[1]; 0.1 μg/ml, 399 nM, control −64.1
  Vh1 of steady state inactivation: −92.6 mV

## C=CC1OC(=O)CC1O (centres unmarked) [compound of formula VI]
[2]; 10 μg/ml, 77.9 μM
  time constant τ of the sensitive current (current subtraction, single-exponential fit): ~795 ms
[1]; 10 μg/ml, 77.9 μM, control −23.9
  Vh2 of steady state inactivation: −40.5 mV
[1]; 10 μg/ml, 77.9 μM, control −91.0
  Vh1 of steady state inactivation: −102.9 mV

## O=C1OC(CO)CC1=CCCc1ccoc1 (centres unmarked) [compound of formula VIII-A]
[2]; 6.5 μg/ml, 29.4 μM
  time constant τ of the sensitive current (current subtraction, single-exponential fit): ~450 ms
[1]; 6.5 μg/ml, 29.4 μM, control −18.1
  Vh2 of steady state inactivation: −35.5 mV
[1]; 6.5 μg/ml, 29.4 μM, control −53.6
  Vh1 of steady state inactivation: −88.9 mV
